For series [1], the system named is human neutrophils. The series can be described thus: cells. Type of series: cell-based. The settings on record: human neutrophils, fMLP/CB, mean ± SEM, n = 3, read-out: Anti-inflammation O2•− generation (IC50). The text has this:
Tables 5 and 6 explore whether there is an anti-inflamatory effect in the dipeptide derivatives. Because ferricytochrome c cannot penetrate cell membranes, it reacts with superoxide anion extracellularly. Also, there are absorptive reactions at 550 nm, and differences among the absorptive reactions can be used to evaluate the influence on the release of superoxide anion. The elastase is released by degranulation as the neutrophil is activated. Tables 5 and 6 use the substrate, MeO-Suc-Ala-Ala-Pro-Val-p-nitroanilide, with the specificity for reacting with the elastase so as to evaluate the influence of the candidate compound on the elastase release.
Blood was taken from healthy human donors (20-32 years old) by venipuncture, following a protocol approved by the Institutional Review Board at Chang Gung Memorial Hospital. Neutrophils were isolated by a standard method of dextran sedimentation prior to centrifugation in a Ficoll Hypaque gradient and the hypotonic lysis of erythrocytes.
The evaluation of O2.^− generation was based on the SOD-inhibitable reduction of ferricytochrome c. In brief, after supplementation with 0.5 mg ml^−1 ferricytochrome c and 1 mM Ca^2+, neutrophils were equilibrated at 37° C. for 2 min and incubated with drugs […].

In series [2] the test system is human neutrophils. As to the kind of experiment: cells. The format is cell-based. The settings on record: fMLP/CB, mean ± SEM. On the procedure:
Degranulation of azurophilic granules was determined by elastase release as described above. Experiments were performed using MeO-Suc-[…]-nitroanilide as the elastase substrate. […] Results are expressed as the percentage of elastase release in the drug-free control group, DMSO. Tables 5 and 6 explore whether there is an anti-inflamatory effect in the dipeptide derivatives. Because ferricytochrome c cannot penetrate cell membranes, it reacts with superoxide anion extracellularly. Also, there are absorptive reactions at 550 nm, and differences among the absorptive reactions can be used to evaluate the influence on the release of superoxide anion. The elastase is released by degranulation as the neutrophil is activated. Tables 5 and 6 use the substrate, MeO-Suc-[…]-nitroanilide, with the specificity for reacting with the elastase so as to evaluate the influence of the candidate compound on the elastase release. Blood was taken from healthy human donors (20-32 years old) by venipuncture, following a protocol approved by the Institutional Review Board at Chang Gung Memorial Hospital. Neutrophils were isolated by a standard method of dextran sedimentation prior to centrifugation in a Ficoll Hypaque gradient and the hypotonic lysis of erythrocytes. […] The degranulation of azurophilic granules was determined by elastase release as described above. Experiments were performed using MeO-Suc-[…]-nitroanilide as the elastase substrate. Briefly, after supplementation with MeO-Suc-[…]-nitroanilide ([…] neutrophils (6×10^5 ml^-1) were equilibrated at 37° C. for 2 min and incubated with drugs for 5 min. […] The results are expressed as the percentage of elastase release in the drug-free control group.

The mark [3] stands for this setting: Neutrophil, n = 3, Table 1, read-out: Anti-inflammation NE release (IC50).

Where two headings read alike, the source gives them in different places. Square brackets hold non-standard residues; d marks the D form. Peptide text beside a SMILES is read from it. * marks the point of attachment. Hydrocinnamoyl = O=C(CCc1ccccc1)*; PhAc = O=C(Cc1ccccc1)*

The compound `COC(=O)[C@@H](Cc1ccccc1)NC(=O)[C@H](Cc1c[nH]c2ccccc12)NC(=O)c1ccc(OC)cc1` [Compound 7, N—(N-4-Methoxylbenzoyl-L-tryptophanyl)-D-phenylalanine methyl ester] displayed a melting point of 151 to 153 °C. The IC50 in the series with human neutrophils [1] (Neutrophil, Table 1) was over 30 µM. Moreover, in the series with human neutrophils [2] (setting [3]), the IC50 is over 30 µM.

Consider `COC(=O)[C@@H](Cc1ccccc1)NC(=O)[C@H](Cc1c[nH]c2ccccc12)NC(=O)Cc1ccccc1` [Compound 8, N—(N-Phenylacetyl-L-tryptophanyl)-D-phenylalanine methyl ester] (PhAc-Trp-[dF]-OMe), for which the melting point lay within 182 to 184 °C. In addition, the IC50 in the series on human neutrophils [1] (Neutrophil, Table 1) was 10.2 ± 4.53 µM. Further, in the series with human neutrophils [2] (setting [3]), the IC50 came to 5.71 ± 0.39 µM.

Take `COC(=O)[C@@H](Cc1ccccc1)NC(=O)[C@H](Cc1c[nH]c2ccccc12)NC(=O)CCc1ccccc1` [Compound 9, N—(N-Phenylpropanoyl-L-tryptophanyl)-D-phenylalanine methyl ester] (Hydrocinnamoyl-Trp-[dF]-OMe): the melting point was 159 to 161 °C. Also, in the series on human neutrophils [1] (Neutrophil, Table 1), the IC50 was 10.1 ± 3.05 µM. Also, the IC50 in the series on human neutrophils [2] (setting [3]) is 12.5 ± 4.87 µM.

`O=C(N[C@@H](Cc1c[nH]c2ccccc12)C(=O)N[C@@H](CO)Cc1ccccc1)c1ccccc1` [Compound 13a, N—(N-Benzoyl-L-tryptophanyl)-D-phenylalaninol] showed a melting point of 151 to 153 °C. Besides, the IC50 in the series on human neutrophils [1] (Neutrophil, Table 3) was over 30 µM. Further, the IC50 in the series with human neutrophils [2] (Neutrophil, n = 3, Table 3, read-out: Anti-inflammation NE release (IC50)) is over 30 µM.

As to `O=C(N[C@@H](Cc1c[nH]c2ccccc12)C(=O)N[C@@H](CO)Cc1ccccc1)c1ccccc1` [Compound 13b, N—(N-Benzoyl-L-tryptophanyl)-D-phenylalaninol], the melting point was 120 to 122 °C. For the same compound, the IC50 in the series on human neutrophils [1] (Table 3) is over 30 µM. In the series on human neutrophils [2] (n = 3, Table 3, read-out: Anti-inflammation NE release (IC50)), the IC50 is over 30 µM.
